From publication doi:10.1101/2024.08.25.609621 (bioRxiv, 2024)
Like-named read-outs stand apart in the source and are kept apart here.

Biological target: SARS-CoV-2 NSP3 macrodomain (Mac1), P43 crystal form (Severe acute respiratory syndrome coronavirus 2, UniProt P0DTD1)
Format: binding
Settings: for 1-BDC: PanDDA background density correction; for Total number of conformations: ligand conformations modeled in Mac1 crystal structure
[1] = TRUE = crystal structure with ligand determined
[2] = crystal soak concentration 20 mM
[3] = crystal soak concentration 20 mM, event 1
[4] = crystal soak concentration 20 mM, P43 crystals
[5] = crystal soak, soak concentration 10 mM
[6] = crystal soak, soak concentration 10 mM, P43 crystals, TRUE = ligand-binding event identified
[7] = crystal soak, soak concentration 10 mM, event 1
[8] = crystal soak, soak concentration 10 mM, TRUE = ligand modeled
[9] = occupancy estimate from PanDDA 1-BDC
[10] = site of Mac1 where ligand bound in crystal structure
[11] = crystal soak concentration 3 mM, P43 crystals
[12] = crystal soak concentration 3 mM
[13] = crystal soak concentration 10 mM, event 1
[14] = crystal soak concentration 10 mM, P43 crystals
[15] = crystal soak concentration 10 mM
[16] = crystal soak, soak concentration 10 mM, TRUE = ligand hit
[17] = crystal structure with Mac1 determined (TRUE)
[18] = site of ligand in Mac1 crystal structure

Structure (SMILES)	1-BDC	X-ray crystal structure [1]	PanDDA run, DMSO background map: Hit [2]	PanDDA run, DMSO background map: 1-BDC [3]	Pandda run, overall: Hit [4]	Pandda run, overall: Modeling comment [4]	Total number of conformations	2*(1-BDC) (%) [9]	Binding site [10]	PanDDA run, DMSO background map: 1-BDC [13]	Pandda run, overall: Hit [14]	PanDDA run, DMSO background map: Hit [15]	Pandda run, overall: Hit [16]	PanDDA run, DMSO background map: 1-BDC (soak concentration 10 mM)	PanDDA run, DMSO background map: Hit (soak concentration 10 mM)	also measured
O=C(O)C1CCCN1S(=O)(=O)c1cccc2nsnc12 (stereo not drawn) [AVI-2]	0.2	TRUE	TRUE	0.22	TRUE	Duplicate, not modeled	1	40%	Adenosine	–	–	–	–	–	–	Pandda run, overall: Modeling comment [5]: DMSO; Pandda run, overall: Hit [6]: TRUE; PanDDA run, DMSO background map: Hit [5]: TRUE; PanDDA run, DMSO background map: Modeled [5]: TRUE; PanDDA run, DMSO background map: 1-BDC [7]: 0.2; Pandda run, overall: Modeled [8]: TRUE
CC1CC(C(=O)O)CCN1C(=O)c1ccc2c(c1)NC(=O)CO2 (stereo not drawn) [AVI-303]	0.13	TRUE	TRUE	0.19	TRUE	Duplicate, not modeled	1	26%	Adenosine	–	–	–	–	–	–	Pandda run, overall: Hit [6]: TRUE; PanDDA run, DMSO background map: Hit [5]: TRUE; PanDDA run, DMSO background map: Modeled [5]: TRUE; PanDDA run, DMSO background map: 1-BDC [7]: 0.13; Pandda run, overall: Modeled [8]: TRUE
Cc1c(C)n(Cc2ccccc2)c2ncnc(N)c12 [AVI-321]	0.08	TRUE	–	–	–	–	1	16%	Adenosine	–	–	–	–	–	–	PanDDA run, DMSO background map: 1-BDC (event 1): 0.15; Pandda run, overall: Hit [11]: TRUE; Pandda run, overall: Modeled [11]: TRUE; PanDDA run, DMSO background map: Hit [12]: TRUE; PanDDA run, DMSO background map: Modeled [12]: TRUE; PanDDA run, DMSO background map: 1-BDC (crystal soak concentration 3 mM, event 1): 0.08
Cc1cc2c(=O)n(CCN3C(=O)c4ccccc4S3(=O)=O)nnc2s1 [AVI-341]	0.18	TRUE	TRUE	0.19	TRUE	Duplicate, not modeled	1	36%	Adenosine	0.18	TRUE	TRUE	–	–	–	Pandda run, overall: Modeled [14]: TRUE; PanDDA run, DMSO background map: Modeled [15]: TRUE
CNc1ccc(NS(=O)(=O)c2cc3cccc(C)c3s2)cn1 [AVI-345]	0.26	TRUE	TRUE	0.26	TRUE	–	1	–	Adenosine	0.17	TRUE	TRUE	–	–	–	Occupancy difference (refined_occupancy - 2*(1-BDC)): 0; Refined ligand occupancy (%): 52%; Pandda run, overall: Modeling comment [14]: Duplicate, not modeled; PanDDA run, DMSO background map: Modeled [2]: TRUE; Pandda run, overall: Modeled [4]: TRUE; 2*(1-BDC) (%) (occupancy estimate from PanDDA BDC): 52%
CC1CCN(C(=O)c2ccc3c(c2)nc(CO)n3C)CC1C(=O)O (stereo not drawn) [AVI-348]	0.25	TRUE	TRUE	0.34	TRUE	Duplicate, not modeled	1	50%	Adenosine	0.25	TRUE	TRUE	–	–	–	Pandda run, overall: Modeled [14]: TRUE; PanDDA run, DMSO background map: Modeled [15]: TRUE
OC[C@@H]1C[C@H](F)CN1c1ncnc2[nH]ccc12 [AVI-609]	0.17	–	–	–	–	–	1	34%	–	–	–	–	TRUE	0.17	TRUE	Pandda run, overall: Modeled [5]: TRUE; X-ray crystallography: Binding site (site where the ligand is bound in the X-ray crystal structure): Adenosine
NC(=O)C1(O)CCN(c2ncnc3[nH]ccc23)C1 (stereo not drawn) [AVI-611]	0.22	–	–	–	–	–	2	44%	–	–	–	–	TRUE	0.22	TRUE	Pandda run, overall: Modeled [5]: TRUE; X-ray crystal structure [17]: TRUE; Binding site [18]: Adenosine
CCC1(O)CCN(c2ncnc3[nH]ccc23)C1 (stereo not drawn) [AVI-612]	0.17	–	–	–	–	–	1	34%	–	–	–	–	–	–	–	Pandda run, overall: Modeled (crystal soak, soak concentration 5 mM): TRUE; Pandda run, overall: Hit (crystal soak, soak concentration 5 mM, TRUE = ligand hit): TRUE; X-ray crystal structure [17]: TRUE; Binding site [18]: Adenosine; PanDDA run, DMSO background map: 1-BDC (soak concentration 5 mM): 0.17; PanDDA run, DMSO background map: Hit (soak concentration 5 mM): TRUE
CN(C)C[C@@]1(O)CCCN(c2ncnc3[nH]ccc23)C1 [AVI-614]	–	–	–	–	–	–	–	–	–	–	–	–	TRUE	0.17	TRUE	Pandda run, overall: Modeling comment [5]: Weak density, not modeled
